Results on two substances are retold here after patent US11857601B2, “Pharmaceutical composition for cancer treatment comprising fusion protein including IL-2 protein and CD80 protein and anticancer drug” (GI INNOVATION, INC., priority 2020, dated 2024).

Assay [1] relates to CT26 cells. Description: mGI-101 and Lenvatinib in CT26 allotransplanted tumor model. The assay is classed as in vivo, BALB/c mice. Particulars: end of the experiment, 10 mice per group. On the procedure:
CT26 cells were purchased from ATCC (USA) and cultured in RPMI1640 medium (Gibco) containing 10% FBS (Gibco) and 1% antibiotic/antifungal agent (Gibco). The cultured cells were harvested using trypsin (Gibco) and then suspended in PBS. In order to establish an allotransplanted tumor model, 1×10^6 CT26 cells were subcutaneously injected into the right flank of BALB/c female mice (7-week-old).
A certain period of time after the cell transplantation, the tumor volume was measured for animals with no abnormalities in the health condition of the animals, and the mice were assigned so that the average tumor volume of each group was less than 70-100 mm^3, each group including 10 mice.
In the case of Lenvatinib powder, the dose was calculated and weighed, and it was prepared to the dose concentration using a 0.5% methyl cellulose excipient. In order to minimize the loss of the test substance, the doses for 3 or 4 days were weighed, and prepared using the excipient on the day of administration and injected.
Clinical symptoms such as a disease and a behavioral change were observed once a day during the test period, and deceased animals were identified, and the mice were sacrificed when the tumor size reached a size of 4,000 mm^3.
The tumor volume before administration of each subject was set as the value measured at the time of grouping.
All statistical calculations were performed using Prism 8.0 (Graph Pad Software Inc, USA). The comparison of tumor volume measurements was made through two-way analysis of variance followed by Tukey's multiple comparison test. A p value of less than 0.05 was considered significant.

In assay [2] the test system is MC38 cells. The experiment in a line: mGI-101 and DMXAA in MC38 allotransplanted tumor model. The assay is classed as in vivo, C57BL/6 mice. Particulars: day 60 after tumor injection; mGI-101 6 mg/kg i.p. BIW, DMXAA 450 μg I.T.; 5 mice per group. As to the method: In order to establish an allotransplanted tumor model, 5×10^5 of MC38 cells were subcutaneously injected into C57BL/6 mice. The tumor grafts of the mice were identified to be a size of 100-200 mm^3 about day 10 after cell inoculation, and the mice were assigned, each group including 5 mice.
The size of the MC38 solid cancer was measured three times a week during the observation period, and the major axis (maximum length, L) and minor axis (perpendicular width, W) of the tumor were measured using a caliper, and the tumor volume (TV) was calculated by substituting them into the following equation, and once the tumor size was no less than 2 cm, the mice were sacrificed. TV (mm^3)=(W^2×L)/2 [Equation 1]

In assay [3] the test system is HCT116 cells. Description: Cancer cell killing, GI-101 and Pertuzumab, HCT116 with NK cells. The assay is classed as cell-based, human. Particulars: GI-101 0.4-100 nM, Pertuzumab 16.9 nM, 24 hours. An excerpt: This experiment was to evaluate the effect of killing cancer cells by treating HCT116 cells (human colon cancer cells) with the test substance GI-101 alone or in combination with Pertuzumab substance in an in vitro environment.
HCT116 cells were purchased from the Korea cell line bank and cultured in McCoy's 5A medium (ATCC) containing 10% FBS (Gibco) and 1% antibiotic/antifungal agent (Gibco). For use in cancer cell killing test, the cells were harvested using trypsin (Gibco), and then suspended in McCoy's 5A medium, and then dead cells and debris were removed using Ficoll (GE Healthcare Life Sciences) solution. The cells suspended in McCoy's 5A medium were carefully layered on ficoll solution. […]
In order to identify the effect of killing the cells, a CytoTox Green reagent ([…]™ CytoTox Green, Satorius) that binds to the DNA of cells to be killed was prepared in 1 μl per 1 mL of RPMI1640 medium containing 5% human AB serum (Sigma). The prepared medium was used for dilution of the test substance, and the effect of killing the cells could be quantitatively identified by staining the cells to be killed when the test substance was co-cultured with cancer cell lines and PBMCs. […]

On to “mGI101: fusion protein: mouse CD80, Ig hinge, Fc domain, linker, IL-2 variant (2M) (R38A, F42A); SEQ ID NO: 15”, for which, in assay [1], the “number of mice with tumor growth inhibition rate of 30% or more” value is 6 mice, the “number of mice with tumor growth inhibition rate of 50% or more” value is given as 2 mice and the “number of mice with tumor growth inhibition rate of 80% or more” value was 1 mice. The survival rate in assay [2] was found to be 20%.
As for “GI101: fusion protein: human CD80 fragment, Ig hinge, Fc domain, linker, IL-2 variant (2M) (R38A, F42A); SEQ ID NO: 9”, in assay [3], the “effect of killing cancer cells” value is on record as “excellent effect of killing cancer cells”.
